These results are taken from patent publication US11534434B2 (Karuna Therapeutics, Inc., priority 2019, dated 2022).

Bounds are passed on as bounds.

The test system of series [1] is muscarinic acetylcholine receptor (mAChRs) human M1-M5 (hM1-hM5). The note with it: pERK, CHO cells. The source says: In-Vitro Radioligand Binding Assays
The Flp-In™ cell lines are designed to generate stable cell lines that express a protein of interest from an Flp-In™ expression vector.
An extracellular signal-related kinase (ERK1/2 or p42/44) is a kinase in the mitogen-activated protein kinase (MAPK) family. Phosphorylation of ERK (pERK) can be used as a common endpoint measurement for the activation of many classes of G protein-coupled receptors (GPCR) and beta-arrestin linked signaling.
For the pERK assay, cells were serum-starved for 5 to 6 hours. Curves were normalized to the maximum response from the fetal bovine serum (FBS) medium corresponding to a 5-minute stimulation. A 5-minute incubation with the agonists was selected for the dose-response pERK assays (n=2).
Nonlinear regression curves were calculated per the three parameters method with no constraints.

The nature of series [2]: Human liver microsome stability. Type of series: in vitro ADME. The note with it: human liver microsomes. As for the experimental part:
Human Liver Microsome Stability
Test compounds were dissolved in DMSO to prepare 10 mM stock solutions, diluted to a final test concentration of 100 nM, and incubated at 37° C. with human liver microsomes. Metabolic stability, expressed as a percent of the parent compound remaining, was assessed at 0, 15, 30, 45, and 60 minutes and calculated by comparing the compound's peak area at the time point relative to that at time-0. The half-life (T1/2) was estimated from the slope of the initial linear range of the logarithmic curve of compound remaining (%) vs. time, assuming first-order kinetics. The apparent intrinsic clearance (CLint, in μL/min/pmol, μL/min/mg or μL/min/Mcell) was calculated according to the following formula: CLint=0.693 T1/2*(mg protein/μL or million cells/μL or pmol CYP isoyme/μL).

The target of another series is T1, human M1 mAChR (Homo sapiens, UniProt P11229).
T1 construct: expressed in transfected cells
T1 sequence (P11229 1-460): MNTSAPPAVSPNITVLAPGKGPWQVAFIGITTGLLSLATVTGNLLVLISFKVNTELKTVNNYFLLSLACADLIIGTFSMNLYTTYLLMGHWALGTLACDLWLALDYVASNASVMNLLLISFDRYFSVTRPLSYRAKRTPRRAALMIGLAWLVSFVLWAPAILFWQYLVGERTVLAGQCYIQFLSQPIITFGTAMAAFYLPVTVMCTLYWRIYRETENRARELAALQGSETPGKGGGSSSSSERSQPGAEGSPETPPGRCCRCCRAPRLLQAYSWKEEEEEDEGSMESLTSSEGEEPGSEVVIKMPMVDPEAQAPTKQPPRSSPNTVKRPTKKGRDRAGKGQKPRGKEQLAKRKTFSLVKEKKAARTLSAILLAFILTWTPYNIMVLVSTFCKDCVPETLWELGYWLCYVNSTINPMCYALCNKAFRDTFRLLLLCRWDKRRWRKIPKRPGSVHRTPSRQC
Description: Whole-cell functional agonist activity, FLIPR Ca2+ release, U2OS-based human M1 mAChR stable cell line. The source says: (§1) Whole-cell functional agonist activity in cells expressing recombinant human muscarinic receptor subtypes.
(§2) ThermoFisher's FLIPR™ (Fluorescence Imaging Plate Reader) was used to quantify Ca^2+ release, a functional effect associated with Gaq-coupled M1 and M5 mAChRs. CisBio's phospho-ERK (pERK) Thr202/Tyr204 was used to evaluate Gai/o-coupled M2 and M4 mAChRs responses.
(§3) One day before the assay, M1, M3, and M5 cells were thawed out and plated at 10,000 cells/well into black-walled, clear-bottom, Poly-D-lysine coated 384-well microplates and incubated at 37° C. and 5% CO2 in MEME+10% FBS+1× penicillin/streptomycin/glutamine, for the M1 and M3 cell lines and F-12+10% FBS+1× penicillin/streptomycin/glutamine for the M5 cell line. […] The M1 and M5 responses were analyzed using the CBIS data analysis suite (ChemInnovation, CA).
(§4) Percentage activity was calculated using the following formula: % Activity=100%×(mean RFU of test sample mean RFU of vehicle control)/(mean MAX RFU control ligand mean RFU of vehicle control) where RFU is relative fluorescence unit. The M2 and the M4 cells were thawed out one day before the assay and plated at 2,000 and 1,000 cells per well, respectively, in […] of DMEM/F12+10% FBS in ProxiPlate 384-well white-walled, white-bottom tissue culture-treated plates and incubated at 37° C. and 5% CO2 overnight. Before the assay, cells were serum-starved at 37° C. in 5% CO2 for 4 hours by replacing culture media with […] of F12 media with 8 mM HEPES. The pERK assay was run according to assay kit instructions with minor volume modifications outlined below.

The target of a further series is T2, human M5 mAChR (Homo sapiens, UniProt P08912).
T2 construct: expressed in transfected cells
T2 sequence (P08912 1-532): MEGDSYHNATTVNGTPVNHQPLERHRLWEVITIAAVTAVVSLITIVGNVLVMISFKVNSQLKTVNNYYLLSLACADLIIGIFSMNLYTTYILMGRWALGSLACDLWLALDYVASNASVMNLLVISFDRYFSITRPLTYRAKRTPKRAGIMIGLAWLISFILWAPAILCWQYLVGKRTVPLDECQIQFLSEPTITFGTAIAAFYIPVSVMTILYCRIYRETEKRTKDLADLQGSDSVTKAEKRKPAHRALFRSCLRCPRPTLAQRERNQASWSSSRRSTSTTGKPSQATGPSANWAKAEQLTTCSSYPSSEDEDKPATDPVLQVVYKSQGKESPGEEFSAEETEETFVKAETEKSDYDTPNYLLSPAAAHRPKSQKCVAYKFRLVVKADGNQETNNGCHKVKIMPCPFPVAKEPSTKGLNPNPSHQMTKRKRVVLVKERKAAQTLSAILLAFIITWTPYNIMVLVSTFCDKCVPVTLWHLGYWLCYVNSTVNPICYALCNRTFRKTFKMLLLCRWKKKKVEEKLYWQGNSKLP
The series is described as follows: Whole-cell functional agonist activity, FLIPR Ca2+ release, CHOK1-based human M5 mAChR stable cell line.
From the text: as §1, §2, §3, §4

The target in the next series is T3, human M3 mAChR (Homo sapiens, UniProt P20309).
T3 construct: expressed in transfected cells
Description: Whole-cell functional agonist activity, FLIPR Ca2+ release, U2OS-based human M3 mAChR stable cell line.
From the text: as §1, §2
One day before the assay, M1, M3, and M5 cells were thawed out and plated at 10,000 cells/well into black-walled, clear-bottom, Poly-D-lysine coated 384-well microplates and incubated at 37° C. and 5% CO2 in MEME+10% FBS+1× penicillin/streptomycin/glutamine, for the M1 and M3 cell lines and F-12+10% FBS+1× penicillin/streptomycin/glutamine for the M5 cell line. On the day of the test, the media was aspirated and replaced with […] fluo-4 dye loading buffer (1× dye, 1× additive A and 2.5 mM fresh probenecid in HBSS and 20 mM HEPES) and incubated at 37° C. and 5% CO2 for 45 minutes. After the incubation, cells were removed from the incubator, […] of HBSS and 20 mM HEPES was added for a total volume of […], and the cells were allowed to equilibrate at room temperature for 15 minutes in the dark before compounds were applied, by adding 4× compound solution in […] of HBSS, 0.4% DMSO and 20 mM HEPES buffer (made from a 10 mM compound stock solution in 100% DMSO), and responses were recorded for 2 minutes in FLIPR Tetra after compound administration. The M1 and M5 responses were analyzed using the CBIS data analysis suite (ChemInnovation, CA).
as §4

The nature of series [3]: Storage stability of the tartrate salt (reanalysis by LC-MS, 1H NMR, 19F NMR). Type of series: physicochemical. The procedure:
The tartrate salt of the title compound was unstable at test storage conditions. Although the initial NMR spectra were clean, the LCMS purity was about 75%. After storage at 0° C. for six months, the sample was reanalyzed by ^1H-NMR, ^19F-NMR, and LC-MS.

Where [4] appears, read: top of curve, % activity vs MAX control ligand, FLIPR Ca2+.

T3 sequence (P20309 whole entry): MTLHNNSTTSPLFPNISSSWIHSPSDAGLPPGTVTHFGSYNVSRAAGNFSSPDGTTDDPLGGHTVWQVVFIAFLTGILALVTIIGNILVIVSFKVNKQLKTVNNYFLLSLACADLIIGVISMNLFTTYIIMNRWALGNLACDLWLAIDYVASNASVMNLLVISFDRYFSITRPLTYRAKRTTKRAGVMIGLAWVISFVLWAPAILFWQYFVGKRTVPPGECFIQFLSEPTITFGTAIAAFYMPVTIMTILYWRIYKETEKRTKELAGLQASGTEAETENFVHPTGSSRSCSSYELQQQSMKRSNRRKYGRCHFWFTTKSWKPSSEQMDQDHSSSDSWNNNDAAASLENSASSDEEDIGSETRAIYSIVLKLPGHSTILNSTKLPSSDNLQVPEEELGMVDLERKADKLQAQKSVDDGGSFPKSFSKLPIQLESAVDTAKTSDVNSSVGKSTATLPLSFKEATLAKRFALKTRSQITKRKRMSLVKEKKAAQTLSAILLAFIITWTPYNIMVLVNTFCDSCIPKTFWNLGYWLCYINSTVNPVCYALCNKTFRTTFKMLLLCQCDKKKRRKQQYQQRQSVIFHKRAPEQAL

With `[2H]C([2H])([2H])N1CCC=C(c2nsnc2OC([2H])([2H])C([2H])([2H])C([2H])([2H])C([2H])([2H])C([2H])([2H])C([2H])([2H])[2H])C1` [Xanomeline-d16, 3-((hexyl-1,1,2,2,3,3,4,4,5,5,6,6,6-d13)oxy)-4-(1-(methyl-d3)-1,2,5,6-tetrahydropyridin-3-yl)-1,2,5-thiadiazole], in series [1], the “agonist profile at hM3, hM5, hM2” value is “modestly potent partial agonists at mAChRs hM3>hM5>hM2” and the “agonist profile at hM4, hM1” value is “efficacious partial agonist at hM4>hM1”.
Consider `CCCC(F)(F)CCOc1nsnc1C1=CCCN(C)C1` [Example 10, 3-((3,3-Difluorohexyl)oxy)-4-(1-methyl-1,2,5,6-tetrahydropyridin-3-yl)-1,2,5-thiadiazole], for which the microsomal CLint at 100 nM in series [2] (apparent intrinsic clearance, no unit in table (μL/min/pmol, μL/min/mg or μL/min/Mcell)) was determined as 701 µL/min/mg. In series [2] (100 nM, 37° C., tartrate salt), the “Parent at 60 min (%)” value is 1%. In addition, the half-life at 100 nM in series [2] (100 nM, 37° C., tartrate salt) came out at 10 min. The EC50 was 0.0042 µM at human M1 mAChR (agonist, FLIPR Ca2+ release, U2OS human M1 cells); 0.0265 µM at human M5 mAChR (agonist, FLIPR Ca2+ release, CHOK1 human M5 cells); more than 10 µM at human M3 mAChR (agonist, FLIPR Ca2+ release, U2OS human M3 cells). Besides, the Emax was 90% at human M1 mAChR (setting [4]), 87% at human M5 mAChR (setting [4]) and 9% on human M3 mAChR (setting [4]).
Turning to `CCCCCCOc1nsnc1C1=CCCN(C(F)(F)F)C1` [Example 3, 3-(Hexyloxy)-4-(1-(trifluoromethyl)-1,2,5,6-tetrahydropyridin-3-yl)-1,2,5-thiadiazole], the “stability of tartrate salt preparation by LCMS” value in series [3] (after 2 days) is recorded as “turned messy”.
As to `FC(F)(F)CCCCCOc1nsnc1C1=CCCN(C(F)(F)F)C1` [Example 2, 3-((6,6,6-Trifluorohexyl)oxy)-4-(1-(trifluoromethyl)-1,2,5,6-tetrahydropyridin-3-yl)-1,2,5-thiadiazole], the “storage stability of tartrate salt” value in series [3] (six months of storage at 0° C., LC-MS, 1H NMR, 19F NMR) is reported as “none of the title compound remained in the sample”.
`[2H]C([2H])([2H])C([2H])([2H])C([2H])([2H])C([2H])([2H])C([2H])([2H])C([2H])([2H])Oc1nsnc1C1=CCCN(C)C1` [Xanomeline-d13, 3-((Hexyl-1,1,2,2,3,3,4,4,5,5,6,6,6-d13)oxy)-4-(1-methyl-1,2,5,6-tetrahydropyridin-3-yl)-1,2,5-thiadiazole]: in series [1], the “agonist profile at hM3, hM5, hM2” value was “modestly potent partial agonists at mAChRs hM3>hM5>hM2” and the “agonist profile at hM4, hM1” value is given as “efficacious partial agonist at hM4>hM1”.
